Data taken from the supplement of paper PMC8671470.

How the values were obtained:
Conditions in all cases: 72 h
[1] = tested on: ML-2
In short: (§1)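 Fifteen myeloid leukaemia cell lines were seeded in RPMI 1640 at densities titrated to the linear growth range and placed in 384-well plates with acoustically pre-printed compounds at five tenfold doses from 1 to 10,000 nM, in duplicate. After 72 h at 37 °C with 5% CO2, luminescent ATP viability was normalised to vehicle and to a positive control at 10 µM, and curves were fitted with a four-parameter log-logistic model. The IC50 was obtained from these fits.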

[2] = tested on: KCL-22
In short: as §1

[3] = tested on: SHI-1
In short: as §1

[4] = tested on: THP-1
In short: as §1

[5] = tested on: BV-173
In short: as §1

[6] = tested on: LAMA-84
In short: as §1

[7] = tested on: HL-60
In short: as §1

[8] = tested on: KG-1
In short: as §1

[9] = tested on: HEL
In short: as §1

[10] = tested on: MOLM-13
In short: as §1

[11] = tested on: HL-60; experiment: area under dose-response curve (viability, 1 nM-10 uM) (fraction (0-1)); higher = more sensitive
In short: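 A rescreen of the full library used HL-60 cells in RPMI 1640 with 10% FBS on 384-well plates, run in duplicate at five tenfold concentrations (1–10,000 nM). Each screen included DMSO or 100 nM of one of three metabolic inhibitors and ran 72 h at 37 °C, 5% CO2. CellTiter-Glo viability was scaled between DMSO and 10 μM proteasome-inhibitor wells. Any area under the curve comes from four-parameter log-logistic fits with drc and PharmacoGx.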

[12] = tested on: myeloid leukemia patient primary cells Pat.4; experiment: cell viability (% survival relative to DMSO control); higher = less cytotoxic
In short: (§2)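 Mononuclear cells from patients with AML or CML were thawed, purified on Ficoll and placed in RPMI 1640 with 10% FBS at 10,000 cells/well on 384-well plates. The plates came pre-printed with 70 compounds at five tenfold concentrations spanning 1–10,000 nM, in duplicate, and cells were exposed for 72 h. CellTiter-Glo gave viability, scaled between DMSO wells and wells with 10 μM proteasome inhibitor. Where reported, area under the curve was obtained from log-logistic fits with four parameters using the drc and PharmacoGx R packages.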

[13] = tested on: myeloid leukemia patient primary cells Pat.5; experiment: as above
In short: as §2

[14] = tested on: myeloid leukemia patient primary cells Pat.9; experiment: as above
In short: as §2

[15] = tested on: myeloid leukemia patient primary cells Pat.14; experiment: as above
In short: as §2

[16] = tested on: myeloid leukemia patient primary cells Pat.7; experiment: as above
In short: as §2

[17] = tested on: myeloid leukemia patient primary cells Pat.15; experiment: as above
In short: as §2

[18] = tested on: myeloid leukemia patient primary cells Pat.10; experiment: as above
In short: as §2

[19] = tested on: myeloid leukemia patient primary cells Pat.13; experiment: as above
In short: as §2

[20] = tested on: myeloid leukemia patient primary cells Pat.6; experiment: as above
In short: as §2

[21] = tested on: myeloid leukemia patient primary cells Pat.3; experiment: as above
In short: as §2

[22] = tested on: myeloid leukemia patient primary cells Pat.1; experiment: as above
In short: as §2

[23] = tested on: myeloid leukemia patient primary cells Pat.8; experiment: as above
In short: as §2

[24] = tested on: myeloid leukemia patient primary cells Pat.2; experiment: as above
In short: as §2

[25] = tested on: myeloid leukemia patient primary cells Pat.11; experiment: as above
In short: as §2

[26] = tested on: myeloid leukemia patient primary cells Pat.12; experiment: as above
In short: as §2

O=C(O)CC[N+](=O)[O-] [3-nitropropionic acid]
Conditions	IC50 (cell viability) [µM]
[1]	> 10
[2]	> 10
[3]	2.94
[4]	> 10
[5]	> 10
[6]	> 10
[7]	4.69
[8]	> 10
[9]	> 10
[10]	2.87

Conditions	area under dose-response curve, co-treatment: AZD3965 100 nM	area under dose-response curve, co-treatment: DMSO vehicle	area under dose-response curve, co-treatment: GSK2194069 100 nM	area under dose-response curve, co-treatment: pictilisib 100 nM	cell viability, 1 nM [%]	cell viability, 10 nM [%]	cell viability, 100 nM [%]	cell viability, 1000 nM [%]	cell viability, 10000 nM [%]
[11]	< 0.0301	< 0.0301	< 0.0301	< 0.0301	–	–	–	–	–
[12]	–	–	–	–	83.6	84.5	99.3	95.6	5.84
[13]	–	–	–	–	85.9	50.1	81.8	67.1	0.265
[14]	–	–	–	–	80.9	66.3	81.6	71.5	2.42
[15]	–	–	–	–	98.6	91.2	> 100	84.7	30.7
[16]	–	–	–	–	98.1	99.9	82.6	90.8	44.9
[17]	–	–	–	–	92.7	79.1	98.7	94.9	2.04
[18]	–	–	–	–	90.9	83.7	74.7	76.2	36.6
[19]	–	–	–	–	87.3	92.4	95.5	88.3	70.8
[20]	–	–	–	–	> 100	93	> 100	96.8	90
[21]	–	–	–	–	91.5	93.8	99.8	92.1	3.01
[22]	–	–	–	–	84.1	94.1	> 100	88.4	68.5
[23]	–	–	–	–	81.1	96.9	95.6	96.3	82.7
[24]	–	–	–	–	91.3	98.1	> 100	92.7	83.7
[25]	–	–	–	–	97.4	90.2	97.5	99.5	97.4
[26]	–	–	–	–	97.9	84	> 100	91.5	48.2

CN(CCOc1ccc(Cc2sc(O)nc2O)cc1)c1ccccn1 [Rosiglitazone]
Conditions	IC50 (cell viability) [µM]
[1]	> 10
[2]	> 10
[3]	> 10
[4]	> 10
[5]	> 10
[6]	> 10
[7]	> 10
[8]	> 10
[9]	> 10
[10]	> 10

Conditions	area under dose-response curve, co-treatment: AZD3965 100 nM	area under dose-response curve, co-treatment: DMSO vehicle	area under dose-response curve, co-treatment: GSK2194069 100 nM	area under dose-response curve, co-treatment: pictilisib 100 nM	cell viability, 1 nM [%]	cell viability, 10 nM [%]	cell viability, 100 nM [%]	cell viability, 1000 nM [%]	cell viability, 10000 nM [%]
[11]	< 0.0301	< 0.0301	< 0.0301	< 0.0301	–	–	–	–	–
[12]	–	–	–	–	83.3	93	99.6	94.1	95.3
[13]	–	–	–	–	9.01	3.3	91.7	92.8	6.86
[14]	–	–	–	–	55	24.9	94.9	61.9	29.7
[15]	–	–	–	–	53.7	59.7	> 100	91.1	50
[16]	–	–	–	–	62.7	60	> 100	88.5	66
[17]	–	–	–	–	93.1	95	91.5	77.7	70
[18]	–	–	–	–	73.8	40	87.7	67.1	49.2
[19]	–	–	–	–	80.8	69.2	99.9	91.9	78.3
[20]	–	–	–	–	89.5	85.4	96.7	99	77.9
[21]	–	–	–	–	91.7	63.6	99.4	79.2	36
[22]	–	–	–	–	80.1	72.6	92.5	95.9	84.4
[23]	–	–	–	–	92.6	87	80.3	91.8	69.7
[24]	–	–	–	–	87.1	78.9	97.8	98.3	83.4
[25]	–	–	–	–	98.6	92.1	95.7	97.2	88.1
[26]	–	–	–	–	> 100	97.4	95.7	96.5	88.9

C[C@]12C=CC(=O)C=C1CC[C@@H]1[C@@H]2[C@@H](O)C[C@@]2(C)[C@H]1CC[C@]2(O)C(=O)CO [Prednisolone]
Conditions	IC50 (cell viability) [µM]
[1]	> 10
[2]	0.524
[3]	> 10
[4]	> 10
[5]	0.0525
[6]	> 10
[7]	> 10
[8]	> 10
[9]	> 10
[10]	> 10

Conditions	area under dose-response curve, co-treatment: AZD3965 100 nM	area under dose-response curve, co-treatment: DMSO vehicle	area under dose-response curve, co-treatment: GSK2194069 100 nM	area under dose-response curve, co-treatment: pictilisib 100 nM	cell viability, 1 nM [%]	cell viability, 10 nM [%]	cell viability, 100 nM [%]	cell viability, 1000 nM [%]	cell viability, 10000 nM [%]
[11]	< 0.0301	< 0.0301	< 0.0301	< 0.0301	–	–	–	–	–
[12]	–	–	–	–	95.3	78.8	78.4	75.8	53.7
[13]	–	–	–	–	40.8	10.3	21.7	72	20.7
[14]	–	–	–	–	99.2	18.2	84.8	> 100	> 100
[15]	–	–	–	–	85.8	46.4	80.9	94	68.3
[16]	–	–	–	–	66.5	60.7	84.5	83.6	83.4
[17]	–	–	–	–	81.1	88.6	86.1	75.4	61.2
[18]	–	–	–	–	73.8	39.2	17.1	31.4	2.16
[19]	–	–	–	–	93.4	82	92.6	> 100	> 100
[20]	–	–	–	–	> 100	75.7	89.4	78.5	66.2
[21]	–	–	–	–	95	71.2	73.9	46	35.2
[22]	–	–	–	–	83.7	69.7	> 100	> 100	97.2
[23]	–	–	–	–	86.3	70.1	87.3	59.3	47.6
[24]	–	–	–	–	95.6	86.1	87.2	77.3	76.4
[25]	–	–	–	–	96.9	93.5	85	83	64.8
[26]	–	–	–	–	89	88.8	95.7	83.9	79
